From ChEMBL document CHEMBL2177097, “Discovery of (2S,3R)-N-[2-(pyridin-3-ylmethyl)-1-azabicyclo[2.2.2]oct-3-yl]benzo[b]furan-2-carboxamide (TC-5619), a selective α7 nicotinic acetylcholine receptor agonist, for the treatment of cognitive disorders” (J Med Chem, 2012)

Key:
[1] = Drug degradation in human liver microsomes at 60 mins; format: ADME, Microsome; details: read-out: Drug degradation
[2] = Drug degradation in human hepatocytes at 4 hrs; format: ADME, cell-based, Hepatocyte; details: read-out: Drug degradation
[3] = Ratio of drug level in brain to plasma in rat measured 6 hrs post dose; format: ADME; details: brain and plasma, read-out: BPR
[4] = Half life in rat; format: ADME, organism-based; details: in vivo
[5] = Oral bioavailability in rat; format: ADME, organism-based; details: in vivo

## O=C(N[C@@H]1C2CCN(CC2)[C@H]1Cc1cccnc1)c1cc2ccccc2o1 [BRADANICLINE]
[1]
  metabolised at 1 h: < 25%
[2]
  metabolised at 4 h: 27%
[3]
  Kp at 6 h: 0.4
[4]
  half-life: 2 h
[5]
  bioavailability: 20%
